Measurements: patent EP2140864A2 (H. Lundbeck A/S, priority 2001, dated 2002)
pKi: −log10 of the molar value. Where two headings read alike, the source gives them in different places.

Columns and labels:
human 5HT6 = target: T1, human 5HT6 (Homo sapiens, UniProt P50406); assay: Radioligand binding, 5-HT6 receptor
T1 construct: expressed in transfected cells
Experimental: Other 5-HT Receptors: Other serotonin receptor binding assays were performed according to published methods: rat 5HT2C receptor (Julius et al., 1988); and 5-HT6 (Monsma, et al., 1993). The binding assays using the 5-HT4 receptor were performed according to the procedures described in U.S. Patent No. 5,766,879, the disclosure of which is hereby incorporated by reference in its entirety into this application.
(§1) Binding data were analyzed using nonlinear regression and statistical techniques available in the GraphPAD Prism package (San Diego, CA). Enzymatic assay data were derived from a standard curve of reference compound data.

human α1A adrenoceptor = target: T2, human α1A adrenoceptor (Homo sapiens, UniProt P35348); assay: Radioligand binding, α1A adrenergic receptor
T2 construct: expressed in transfected cells
T2 sequence (P35348 1-466): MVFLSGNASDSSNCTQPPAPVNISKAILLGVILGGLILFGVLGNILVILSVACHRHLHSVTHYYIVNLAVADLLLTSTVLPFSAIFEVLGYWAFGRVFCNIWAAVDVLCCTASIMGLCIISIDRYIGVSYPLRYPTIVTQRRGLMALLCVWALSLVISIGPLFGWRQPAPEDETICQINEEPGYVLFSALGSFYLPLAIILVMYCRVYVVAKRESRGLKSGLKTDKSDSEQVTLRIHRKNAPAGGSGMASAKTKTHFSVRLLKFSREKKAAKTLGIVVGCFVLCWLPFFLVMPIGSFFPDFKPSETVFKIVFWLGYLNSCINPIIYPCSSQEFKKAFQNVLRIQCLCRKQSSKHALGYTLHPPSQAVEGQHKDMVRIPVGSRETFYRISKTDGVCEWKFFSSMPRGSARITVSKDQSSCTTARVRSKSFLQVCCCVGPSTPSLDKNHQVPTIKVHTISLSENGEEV
Source text: (§2) Other receptors: Cell membranes expressing human dopamine D1, D2, D4 and rat D3 receptors were purchased through BioSignal, Inc. (Montreal, Canada). Binding assays using the histamine H1 receptor; dopamine receptors; and α1A, α1E, and α2 adrenergic receptors may be carried out according to the procedures described in U.S. Patent No. 5,780,485, the disclosure of which is hereby incorporated by reference in its entirety into this application. Binding assays using the dopamine D5 receptor may be carried out according to the procedures described in U.S. Patent No. 5,882,855, the disclosure of which is hereby incorporated by reference in its entirety into this application. Binding assays for the human α1D adrenergic receptor may be carried out according to the procedures described in U.S. Patent No. 6,156,518, the disclosure of which is hereby incorporated by reference in its entirety into this application.
as §1

human α2B adrenoceptor = target: T3, human α2B adrenoceptor (Homo sapiens, UniProt P18089); assay: Radioligand binding, α2B adrenergic receptor
T3 construct: expressed in transfected cells
T3 sequence (P18089 1-450): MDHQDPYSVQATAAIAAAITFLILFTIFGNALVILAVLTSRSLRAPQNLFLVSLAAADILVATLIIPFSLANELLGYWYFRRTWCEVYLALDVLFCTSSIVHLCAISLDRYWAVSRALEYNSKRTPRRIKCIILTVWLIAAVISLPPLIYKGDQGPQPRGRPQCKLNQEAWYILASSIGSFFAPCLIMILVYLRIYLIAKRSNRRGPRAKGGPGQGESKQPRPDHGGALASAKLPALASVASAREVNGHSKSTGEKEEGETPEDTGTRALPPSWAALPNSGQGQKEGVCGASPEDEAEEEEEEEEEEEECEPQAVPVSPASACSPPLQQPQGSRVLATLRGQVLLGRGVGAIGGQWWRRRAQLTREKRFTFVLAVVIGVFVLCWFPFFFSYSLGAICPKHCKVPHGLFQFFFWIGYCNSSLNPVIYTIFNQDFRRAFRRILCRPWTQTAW
Source text: as §2, §1

human dopamine D2 = target: T4, human dopamine D2 (Homo sapiens, UniProt P14416); assay: Radioligand binding, dopamine D2 receptor
T4 construct: purchased BioSignal, Inc. (Montreal, Canada)
Source text: as §2, §1

human 5HT1F = target: T5, human 5HT1F (Homo sapiens, UniProt P30939); assay: Radioligand binding, 5HT1F receptor ([3H]-serotonin)
T5 construct: expressed in transfected cells
T5 sequence (P30939 1-366): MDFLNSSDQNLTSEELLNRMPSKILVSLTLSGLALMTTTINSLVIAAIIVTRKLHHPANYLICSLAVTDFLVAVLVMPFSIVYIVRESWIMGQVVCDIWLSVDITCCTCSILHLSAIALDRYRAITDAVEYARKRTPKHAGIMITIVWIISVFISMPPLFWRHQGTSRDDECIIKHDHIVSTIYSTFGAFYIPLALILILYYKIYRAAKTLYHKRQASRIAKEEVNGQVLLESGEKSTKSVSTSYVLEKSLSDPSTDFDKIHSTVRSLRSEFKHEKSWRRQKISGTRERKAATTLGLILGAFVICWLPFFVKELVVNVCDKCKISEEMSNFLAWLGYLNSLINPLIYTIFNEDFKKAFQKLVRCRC
Experimental: Human 5HT1B, 5HT1D, 5HT1E, 5HT1F, and 5HT7 Receptors: The cell lysates of LM(tk-) clonal cell line stably transfected with the genes encoding each of these 5HT receptor-subtypes were prepared as described above. Cell membranes were suspended in 50mM Tris-HCl buffer (pH 7.4 at 37°C) containing 10 mM MgCl2, 0.2 mM EDTA, 10 µM pargyline, and 0.1% ascorbate. […] Nonspecific binding was determined in the presence of 10 µM serotonin. The bound radioligand was separated by filtration through GF/B filters using a cell harvester.
as §1

[1] = Table 8; Ki h5HT6 divided by Ki hGAL3
[2] = Table 10; Ki hα1A divided by Ki hGAL3
[3] = Table 10; Ki hα2B divided by Ki hGAL3
[4] = Table 10; Ki hD2 divided by Ki hGAL3
[5] = Table 8; Ki h5HT1F divided by Ki hGAL3

T1 sequence (P50406 whole entry): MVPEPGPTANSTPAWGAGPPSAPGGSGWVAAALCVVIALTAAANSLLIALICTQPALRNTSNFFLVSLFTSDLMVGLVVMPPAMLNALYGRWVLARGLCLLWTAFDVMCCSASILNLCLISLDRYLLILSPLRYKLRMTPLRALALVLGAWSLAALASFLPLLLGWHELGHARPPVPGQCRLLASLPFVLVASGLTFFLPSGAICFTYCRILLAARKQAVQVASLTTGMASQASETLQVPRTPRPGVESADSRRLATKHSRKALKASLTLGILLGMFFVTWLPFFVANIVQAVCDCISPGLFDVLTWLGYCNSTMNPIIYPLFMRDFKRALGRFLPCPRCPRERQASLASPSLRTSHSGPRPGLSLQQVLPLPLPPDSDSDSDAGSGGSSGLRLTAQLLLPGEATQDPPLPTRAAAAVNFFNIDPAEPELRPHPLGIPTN
T4 sequence (P14416 whole entry): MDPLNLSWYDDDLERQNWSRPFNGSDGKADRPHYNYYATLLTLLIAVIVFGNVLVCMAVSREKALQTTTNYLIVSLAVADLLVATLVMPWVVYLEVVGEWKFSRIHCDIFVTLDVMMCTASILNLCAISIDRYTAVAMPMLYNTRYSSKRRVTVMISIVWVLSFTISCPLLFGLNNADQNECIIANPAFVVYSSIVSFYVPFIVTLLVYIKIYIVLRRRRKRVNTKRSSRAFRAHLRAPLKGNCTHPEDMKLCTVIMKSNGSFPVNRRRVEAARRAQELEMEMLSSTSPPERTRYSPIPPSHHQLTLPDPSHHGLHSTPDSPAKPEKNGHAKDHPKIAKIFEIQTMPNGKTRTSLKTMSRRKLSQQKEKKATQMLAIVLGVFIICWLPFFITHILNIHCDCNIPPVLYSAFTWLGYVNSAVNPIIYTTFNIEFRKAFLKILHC

Row | SMILES | pKi (human 5HT6; Table 7; read-out: h5HT6 Ki) | selectivity ratio h5HT6 (human 5HT6; [1]) | pKi (human α1A adrenoceptor; Table 9; read-out: hα1A Ki) | selectivity ratio hα1A (human α1A adrenoceptor; [2]) | pKi (human α2B adrenoceptor; Table 9; read-out: hα2B Ki) | selectivity ratio hα2B (human α2B adrenoceptor; [3]) | pKi (human dopamine D2; Table 9; read-out: hD2 Ki) | selectivity ratio hD2 (human dopamine D2; [4]) | pKi (human 5HT1F; Table 7; read-out: h5HT1F Ki) | selectivity ratio h5HT1F (human 5HT1F; [5]) | pKi (human 5HT6; read-out: h5HT6 Ki; Table 7) | pKi (human α1A adrenoceptor; read-out: hα1A Ki; Table 9) | pKi (human α2B adrenoceptor; read-out: hα2B Ki; Table 9) | pKi (human dopamine D2; read-out: hD2 Ki; Table 9) | pKi (human 5HT1F; read-out: h5HT1F Ki; Table 7)
1 | COc1cccc(Nc2cc(N3CCCCC3)nc(N(C)CCc3c[nH]c4ccccc34)n2)c1 [Example 17] | 6.15 | 8 | 6.00 | 11 | 4.41 | >100 | 5.74 | 21 | 4.99 | >100 | – | – | – | – | –
2 | Cc1ccc(Nc2cc(N(C)C)nc(N(C)CCc3c[nH]c4ccccc34)n2)cc1 [Example 77] | 6.30 | 6 | 6.08 | 11 | 5.11 | >30 | 6.04 | 11 | 5.49 | >30 | – | – | – | – | –
3 | O=C1C(=Nc2cccc(C(F)(F)F)c2)c2ccccc2N1c1ccccc1 [Example 92, 1-PHENYL-3- [[3-(TRIFLUOROMETHYL)PHENYL]IMINO]-1,3-DIHYDRO-2H-INDOL-2-ONE] | – | >100 | – | – | – | >100 | – | >100 | – | >100 | – | – | – | – | –
4 | O=C1C(=Nc2cccc(Cl)c2)c2ccccc2N1c1ccccc1 [Example 94, 3-[(3-CHLOROPHENYL)IMINO]-1-PHENYL-1,3-DIHYDRO-2H-INDOL-2-ONE] | 5.44 | >30 | 4.90 | >100 | 4.34 | >100 | 5.20 | >100 | 5.25 | >100 | – | – | – | – | –
5 | COC[C@@H]1[C@@H](c2ccccc2)OCCN1c1nc(Nc2ccc(C)cc2)cc(N2CCCCC2)n1 [Example 49] | – | – | – | >30 | – | >100 | – | 28 | – | >30 | 7.89 | 5.18 | 4.60 | 5.23 | 5.05
6 | O=C1C(=Nc2ccc(Cl)cc2)c2ccccc2N1c1ccccc1 [Example 97, 3-[(4-CHLOROPHENYL)IMINO]-1-PHENYL-1,3-DIHYDRO-2H-INDOL-2-ONE] | 4.54 | >100 | 4.77 | >100 | < 4.30 | >100 | < 4.30 | >100 | 5.38 | >30 | – | – | – | – | –
7 | Cc1ccc(Nc2cc(N3CCCCC3)nc(N3CCN(c4ncccc4C(F)(F)F)CC3)n2)cc1 [Example 34] | 4.41 | >100 | 5.43 | >100 | 4.81 | >100 | 5.60 | >100 | 5.32 | >100 | – | – | – | – | –
